As usually defined, the IC50 is the concentration that gives 50% inhibition.

Molecules are shown by their SMILES.

Consider 2 compounds from patent US9738659B2, “Compositions of protein receptor tyrosine kinase inhibitors” (Purdue Pharma L.P., priority 2008, dated 2017).

Data set [1] deals with T1, TrkA (h) (Homo sapiens, UniProt P04629).
T1 construct: Recombinant Human Cytoplasmic Domain (amino acids 441-796); His tag; host or cells: insect cells
In words: Radiometric based mixed micelle kinase assay. Format: biochemical. Particulars: read-out: IC50 antagonizing the TrkA kinase activity. The protocol:
Compound Inhibition in a Radiometric Based Mixed Micelle Assay:
In a final reaction volume of 25 μL, TrkA (h) (3 nM) is incubated with the kinase reaction buffer (20 mM HEPES (pH 7.5), 10 mM MgCl2, 1 mM EGTA, 0.02% Brij 35, 0.02 mg/ml BSA, 0.1 mM Na3VO4, 2 mM DTT, 1% DMSO), 0.2 mg/ml substrate PolyEY(4:1) and […], and [33P-ATP] (specific activity approx. 500 cpm/pmol, concentration as required). The reaction is initiated by the addition of the MgATP mix. After incubation for at least 40 minutes at room temperature, the reaction is stopped by the addition of 5 μL of a 3% phosphoric acid solution. 10 μL of the reaction is then spotted onto a P30 filtermat and washed three times for 5 minutes in 75 mM phosphoric acid and once in methanol prior to drying and scintillation counting. TrkA: Recombinant Human Cytoplasmic Domain (amino acids 441-796), Histidine-tagged, expressed in insect cells. Activated in vitro via auto-phosphorylation. Mw=42.8 kDa. Substrates for kinases: poly(EY) for TRKA; poly(EY)(4:1) with 2 mM MnCl2, average Mw=16 kDa Standard conditions (unless otherwise specified): 30 nM TRKA, 0.2 mg/ml poly(EY)+2 mM MnCl2, and 10 μM ([γ-^33P]) ATP. Using the similar assay condition with other kinases of recombinant human cytoplasmic domain, the activities of other kinases could be also measured.

For data set [2], the system named is CCI rats. The data set is described as follows: Chronic constriction injury (CCI) model of neuropathic pain in rats. Format: in vivo, rat. Particulars: CCI rats after single oral dose. From the text: Chronic Constriction Injury (CCI) Model of Neuropathic Pain in Rats.
The CCI model is one of the most commonly used mono-neuropathic pain model firstly described in details by Bennett and Xie (Bennett G J, Xie Y K. Pain. 1988; 33(1):87-107). It mimics important clinical chronic pain symptoms such as mechanical allodynia and thermal hyperalgesia. Chronic constriction injury of the sciatic nerve was produced by tying four loose ligatures around the left sciatic nerve according to the method of Bennett and Xie. […] Calibrated von Frey filaments were used to determine the lowest mechanical (tactile) threshold required to evoke a brisk paw withdrawal reflex in the rat hindpaws. Rats were allowed to acclimatize in wire mesh cages for 15-20 min prior to von Frey testing. Assessment of paw withdrawal thresholds (PWTs) using von Frey filaments was undertaken prior to CCI-surgery (pre-surgery baseline on day 0). Before the drug dosing on day 14, the pre-dose baseline was recorded for each rat. […] Drug-naïve CCI-rats (n=4-6 per group) were used. The oral vehicle was 0.5% CMC-Na/0.1% Tween 80 in distilled water. The positive control gabapentin was dissolved in the vehicle and orally given at 100 mg/kg (by oral gavage). Test compound was suspended in the vehicle and orally given at 50 mg/kg and 100 mg/kg. […]

T1 sequence (P04629 441-796): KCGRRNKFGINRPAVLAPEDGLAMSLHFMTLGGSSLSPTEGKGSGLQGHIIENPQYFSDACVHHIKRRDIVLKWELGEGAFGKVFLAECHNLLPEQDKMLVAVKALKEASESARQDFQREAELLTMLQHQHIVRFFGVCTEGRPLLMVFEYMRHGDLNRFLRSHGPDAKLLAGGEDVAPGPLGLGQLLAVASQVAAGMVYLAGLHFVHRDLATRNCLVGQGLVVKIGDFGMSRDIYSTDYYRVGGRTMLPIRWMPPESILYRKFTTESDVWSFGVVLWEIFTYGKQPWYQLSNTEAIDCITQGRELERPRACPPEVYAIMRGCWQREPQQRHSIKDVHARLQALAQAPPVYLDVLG

Consider `Cc1ccc(Cl)cc1N1CCN(CCCNC(=O)c2ccc3c(c2)NC(=O)C2CCCCN32)CC1` (centres unmarked) [Compound 201, N-{3-[4-(5-chloro-2-methylphenyl)piperazin-1-yl]propyl}-6-oxo-6,6a,7,8,9,10-hexahydro-5H-pyrido[1,2-a]quinoxaline-3-carboxamide], for which the IC50 in data set [1] came to 0.085 µM.
Consider `NCC1(CC(=O)O)CCCCC1` [gabapentin], for which the “Observed side effects (drowsiness, motor incoordination, other abnormality)” value in data set [2] is listed as “drowsiness or motor incoordination”.
